Experimental data taken from article PMC4072317 (Food chemistry, 2013).
Like-named read-outs stand apart in the source and are kept apart here.

Tests used:
[1] = test system: human intestinal Caco-2 cell membranes; settings: ref Yi et al., 2006; cited from earlier work
[2] = for hourly bioaccessibility as a percentage of anthocyanin input: fasted state, 4 h
[3] = for ACNs in I.E. as % of input: fed state (high fat meal), ileal efflux over 4 h, mean ± range, two experiments
[4] = test system: mice with diet-induced diabetes; settings: orally administered, ref Grace et al., 2009; cited from earlier work

| SMILES | transport efficiency in Caco-2 cells [1] | ACNs in I.E. as % of input [3] | also measured |
| --- | --- | --- | --- |
| OC[C@H]1O[C@@H](Oc2cc3c(O)cc(O)cc3[o+]c2-c2cc(O)c(O)c(O)c2)[C@H](O)[C@@H](O)[C@@H]1O [dp-3-Glucoside, delphinidin-3-glucoside] | lower transport efficiency | – | – |
| COc1cc(-c2[o+]c3cc(O)cc(O)c3cc2O[C@@H]2O[C@H](CO)[C@@H](O)[C@H](O)[C@H]2O)cc(OC)c1O [mal-3-Glucoside, malvidin-3-glucoside] | highest transport efficiency | 3.2 ± 0.1 % of input | hourly bioaccessibility as a percentage of anthocyanin input ([2]; ileal samples): 0.3%; hourly bioaccessibility as a percentage of anthocyanin input ([2]; jejunum): 0.8%; hypoglycemic effect [4]: hypoglycemic |
| COc1cc(-c2[o+]c3cc(O)cc(O)c3cc2O[C@@H]2O[C@H](COC(C)=O)[C@H](O)[C@H](O)[C@H]2O)cc(OC)c1O [mal-3-(6″-Acetoyl)-galactoside] | – | 2.4 ± 0.9 % of input | – |
| COc1cc(-c2[o+]c3cc(O)cc(O)c3cc2O[C@@H]2OC[C@H](O)[C@H](O)[C@H]2O)cc(OC)c1O [mal-3-Arabinoside, malvidin-3-arabinoside] | – | 2.6 ± 0.4 % of input | total bioaccessibility in the fasted state relative to the fed state ([2]; fasted vs fed (high fat meal), Tables 1 and 2): twice as bioaccessible |
| COc1cc(-c2[o+]c3cc(O)cc(O)c3cc2O[C@@H]2O[C@H](CO)[C@H](O)[C@H](O)[C@H]2O)cc(OC)c1O [mal-3-Galactoside] | – | 2.6 ± 0.8 % of input | – |
| COc1cc(-c2[o+]c3cc(O)cc(O)c3cc2O[C@@H]2OC[C@H](O)[C@H](O)[C@H]2O)cc(O)c1O.[Cl-] [pt-3-Arabinoside, petunidin-3-arabinoside] | – | 4.5 ± 1.5 % of input | total bioaccessibility in the fed state relative to the fasted state ([3]; fed (high fat meal) vs fasted, Tables 1 and 2): twice as bioaccessible |
